For one assay, the target named is albumin (Homo sapiens, UniProt P02768). The assay is described as follows: peptide binding to protein-coated polystyrene surfaces (albumin). The settings on record: biotinylated peptide; common blood plasma protein. The procedure: (§1) During the development of embodiments of the technology provided herein, experiments were conducted to assess the binding specificity of the CREKA peptides towards fibrin and non-target components. […] Proteins were applied to uncoated polystyrene surfaces at 10 μg/cm^2 and washed with PBS three times to remove unbound protein. A range of concentrations of biotinylated CREKA and biotinylated CERAK were incubated with the treated surfaces overnight, then washed three times the next day to remove the unbound peptides. The peptides remaining on the protein-coated surfaces were quantified using fluorophore-conjugated streptavidin. […] These properties of the heparin-CREKA compounds indicate that heparin-CREKA is appropriate for administration by intravenous injection.

The subject of the next assay is fibrin. The assay is described as follows: peptide binding to protein-coated polystyrene surfaces (fibrin). The settings on record: biotinylated peptide vs scrambled CERAK; protein 10 μg/cm^2; overnight; fluorophore-conjugated streptavidin. The method, then: as §1
For a further assay, the target named is T1, fibrinogen (Homo sapiens, UniProt P02671+P02675+P02679).
T1 sequence (P02671 20-629 limits assumed): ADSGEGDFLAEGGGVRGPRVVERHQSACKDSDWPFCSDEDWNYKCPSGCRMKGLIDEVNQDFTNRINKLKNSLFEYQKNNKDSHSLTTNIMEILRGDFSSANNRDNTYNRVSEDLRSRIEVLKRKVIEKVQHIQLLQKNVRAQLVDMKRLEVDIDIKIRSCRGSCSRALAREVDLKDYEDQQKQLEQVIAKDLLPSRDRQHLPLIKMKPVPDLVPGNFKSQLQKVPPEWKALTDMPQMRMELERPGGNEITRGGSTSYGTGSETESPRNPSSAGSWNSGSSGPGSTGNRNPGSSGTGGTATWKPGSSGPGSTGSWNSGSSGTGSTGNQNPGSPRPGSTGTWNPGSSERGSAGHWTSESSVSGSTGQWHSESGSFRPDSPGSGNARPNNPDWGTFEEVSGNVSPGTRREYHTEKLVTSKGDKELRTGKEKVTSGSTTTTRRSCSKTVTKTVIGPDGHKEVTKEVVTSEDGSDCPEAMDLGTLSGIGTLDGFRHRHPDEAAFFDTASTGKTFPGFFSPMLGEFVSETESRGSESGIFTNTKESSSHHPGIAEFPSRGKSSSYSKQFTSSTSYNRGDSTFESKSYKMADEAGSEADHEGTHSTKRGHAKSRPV
T1 sequence (P02675 31-491): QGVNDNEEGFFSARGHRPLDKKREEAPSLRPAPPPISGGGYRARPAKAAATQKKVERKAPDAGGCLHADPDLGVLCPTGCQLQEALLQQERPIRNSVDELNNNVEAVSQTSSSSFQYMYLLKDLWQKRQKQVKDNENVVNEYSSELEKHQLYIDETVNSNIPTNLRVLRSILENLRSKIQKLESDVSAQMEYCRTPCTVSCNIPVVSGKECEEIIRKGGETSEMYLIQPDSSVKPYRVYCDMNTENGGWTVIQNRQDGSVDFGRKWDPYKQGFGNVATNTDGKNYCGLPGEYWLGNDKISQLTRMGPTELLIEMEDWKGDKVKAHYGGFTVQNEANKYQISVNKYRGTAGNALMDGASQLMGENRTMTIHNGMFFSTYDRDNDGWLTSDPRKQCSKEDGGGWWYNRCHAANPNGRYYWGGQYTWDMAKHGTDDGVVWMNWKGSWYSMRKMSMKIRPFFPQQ
T1 sequence (P02679 27-433 limits assumed): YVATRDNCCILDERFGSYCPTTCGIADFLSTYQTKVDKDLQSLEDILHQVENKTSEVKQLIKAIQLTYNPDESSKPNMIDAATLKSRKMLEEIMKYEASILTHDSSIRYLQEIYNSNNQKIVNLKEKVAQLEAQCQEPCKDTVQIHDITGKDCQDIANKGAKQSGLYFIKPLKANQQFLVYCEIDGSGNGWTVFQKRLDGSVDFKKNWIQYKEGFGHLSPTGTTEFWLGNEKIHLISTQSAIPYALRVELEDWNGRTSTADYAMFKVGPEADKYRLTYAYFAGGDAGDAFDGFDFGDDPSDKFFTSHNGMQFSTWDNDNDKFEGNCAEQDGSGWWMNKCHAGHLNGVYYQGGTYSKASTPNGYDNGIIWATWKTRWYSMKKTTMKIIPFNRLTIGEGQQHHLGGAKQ
The assay is described as follows: peptide binding to protein-coated polystyrene surfaces (fibrinogen). The following applies: biotinylated peptide; common blood plasma protein. The method, then: as §1

For assay [1], the system named is ePTFE graft in abdominal aorta. Kind of assay: rat abdominal aorta interposition model with ePTFE graft. The settings on record: two intravenous doses, 24 hours; middle_3 and distal segments. It is filed as in vivo, Sprague Dawley rats. The method, then: During the development of embodiments of the technology provided herein, experiments were conducted to evaluate the in vivo performance of the heparin-CREKA relative to conventional clinically used heparin. In particular, heparin-CREKA was studied in a rat abdominal aorta interposition model. Briefly, male Sprague Dawley rats (200-500 g) were anesthetized by a ketamine/xylazine cocktail. The abdomen of the anesthetized rat was entered through a midline incision. The abdominal aorta was exposed (FIG. 7, Panel A), clamped in both proximal and distal regions using micro-vessel clips, and then excised between the clamps (FIG. 7, Panel B). A segment (e.g., approximately 1 cm in length; 1.524±0.05 mm in diameter) of expanded polytetrafluoroethylene (ePTFE) was used as a graft. The graft was connected to the abdominal aorta using an end-to-end anastomosis technique with interrupted stitches at each end (FIG. 7, Panel C). Following reperfusion of blood flow through the graft, one dose of anti-coagulant (heparin or heparin-CREKA) was given systemically via intravenous injection. The incision was then closed in layers. 24 hours after the initial implantation surgeries and immediately prior to sacrifice of the test […], a second dose of […] (heparin or heparin-CREKA) was administered systemically via intravenous injection. […]

The test system of the next assay is Pig whole blood. Kind of assay: whole blood clotting assay on fibrin coated plates. It is filed as cell-based. The settings on record: fibrin coated 96-well plates pre-treated 30 minutes, washed three times with PBS; re-calcified blood; absorbance 405 nm. The procedure:
During the development of embodiments of the technology provided herein, experiments were conducted to test the anti-coagulant activity of embodiments of the heparin-CREKA compounds described herein. In particular, the heparin-CREKA compounds were evaluated by a whole blood clotting assay and a platelet adhesion assay (FIGS. 4 and 5). Pig whole blood was collected into acid citrate dextrose (ACD) anticoagulant. Fibrin coated 96-well plates were pre-treated with phosphate-buffered saline (PBS), heparin, or heparin-CREKA for 30 minutes at room temperature, then followed with three washes with PBS prior to the test. The wash removes unbound heparin or heparin-CREKA from the surfaces. Control experiments included tests of tissue culture treated and untreated polystyrene 96 well plates. […] The coagulation process was monitored at each selected time point by adding 150 μl of deionized water into each well to lyse the unclotted red blood cells. The lysate was then transferred into a new plate and the absorbance was measured at a wavelength of 405 nm. Higher absorbance represents more unclotted red blood cells and better anti-coagulation effect. The anti-coagulant effect of heparin-CREKA was detected up to 60 minutes while the effect of the conventional heparin was undetectable 20 minutes after contacting the blood (FIG. 4).

The next assay deals with platelets. Kind of assay: platelet adhesion assay using platelet-rich plasma on fibrin surfaces. The class given is cell-based. The settings on record: compared to bare fibrin surface; at a lower concentration than heparin; PRP 1:10, 37° C., 60 minutes; LDH readout. The method, then: Next, during the development of embodiments of the technology provided herein, experiments were conducted to test the anticoagulation activity of embodiments of the heparin-CREKA compounds described herein. In particular, a platelet adhesion assay was performed using platelet-rich plasma (PRP). Surfaces were treated with various concentrations of heparin or heparin-CREKA as described above. PRP, diluted 1:10 in PBS, was incubated at 37° C. for 60 minutes with the samples and gently rinsed with warm PBS. The number of adherent platelets was determined by detecting the amount of lactate dehydrogenase (LDH) present after cell lysis. Briefly, adherent platelets were lysed by incubation with 2% Triton-PSB buffer for 30 minutes at 37° C. A colorimetric substrate for LDH was added and incubated for 20 minutes at 37° C. The optical density was measured at a wavelength of 490 nm. A calibration curve was generated from a series of serial dilutions of a known platelet concentration and used to determine the number of adhered platelets.

The next assay relates to graft site. The assay is described as follows: in vivo dosing studies, anti-coagulant effect at the graft site by imaging. The procedure:
During the development of embodiments of the technology provided herein, experiments were conducted to study the in vivo binding and pharmacology response of the embodiments of heparin-CREKA. In particular, data were collected from three animal studies in which the dosing period was varied. Study 1—animals were scarified 24 hours after the initial surgery and 2 doses of heparin-CREKA or control heparin-CERAK were administrated by intravenous injection during the 24 hour period. The first dose was administered immediately after the surgery (e.g., after re-establishing blood flow at the graft area). The second dose was administered 6 hours prior to euthanizing the animal. Imaging data were collected and analyzed to evaluate the anti-coagulant effect of heparin-CREKA at the graft site. […] Study 2—animals were kept alive for 7 days after surgery and one dose of heparin-CREKA or control heparin-CERAK was administrated by intravenous injection immediately after the surgery (e.g., after re-establishing blood flow at the graft area). In contrast to Study 1, no additional dose was given after the first dose. Imaging data were collected and analyzed to evaluate the anti-coagulant effect of heparin-CREKA at the graft site. […] Study 3—animals were kept alive for 7 days after surgery and two doses of heparin-CREKA or control heparin-CERAK were administrated by intravenous injection during the 7 day period. The first dose was administered immediately after the surgery (e.g., after re-establishing blood flow at the graft area). The second dose was administered 6 hours before euthanizing the animal. Imaging data were collected and analyzed to evaluate the anti-coagulant effect of heparin-CREKA at the graft site.

Where no end group is shown, it is not given here. Some results are limits rather than exact numbers.

This is an account of results in US20250129184A1, “TARGETED ANTICOAGULANT” (Northwestern University, priority 2016, published 2025).

Turning to “Cys-Arg-Glu-Lys-Ala (CREKA; also: biotinylated, site not given here) [tested in biotinylated form]”, in the assay with albumin, the binding to albumin result is “very weakly”. Besides, the CREKA-fibrin binding entry with fibrin was “highly specific”. In the assay with fibrinogen, the binding to fibrinogen entry was “very weakly”.
heparin [reference compound]: the “clotting in the grafts (histology)” value in assay [1] is “major clotting”. The “time for which the anti-coagulant effect was detected after contacting the blood” value in the assay with Pig whole blood was < 20 min.
Regarding “heparin-CREKA: heparin covalently linked through a BMPH linker to the fibrin binding peptide Cys-Arg-Glu-Lys-Ala (CREKA) (also: heparin linked via BMPH linker, site not given here)”, in assay [1], the “clotting in the grafts (histology)” value is “remained clean”. The “time for which the anti-coagulant effect was detected after contacting the blood” value in the assay with Pig whole blood is on record as “up to 60 minutes”. The “amount of adhered platelets” value in the assay on platelets is on record as “significantly reduced”. The “anti-coagulant effect at the graft site relative to heparin-CERAK” value in the assay on graft site (Study 1: 24 hours, 2 intravenous doses (after surgery and 6 hours prior to euthanizing)) was “significant improvement”; in the assay with graft site (Study 2: 7 days, one intravenous dose immediately after surgery) it was “only a very small difference”; in the assay with graft site (Study 3: 7 days, two intravenous doses (after surgery and 6 hours before euthanizing)), “significant improvement”.
